Measurements published in patent US20240351986A1, “UREA COMPOUND CONTAINING 2-HETEROAROMATIC RING SUBSTITUTION, PREPARATION METHOD THEREFOR AND USE THEREOF” (SHANGHAI INSTITUTE OF MATERIA MEDICA, CHINESE ACADEMY OF …, priority 2021, published 2024).

Biological target: T1, Recombinant human CDK9/cyclin T1 (Homo sapiens, UniProt P50750)
T1 construct: purchased Carna bioscience 04-110
Test: CDK9 enzyme inhibitory activity (ADP-Glo kinase assay)
Type: biochemical
Conditions: CDK9 enzyme activity, average of two independent repeats; for inhibition at 0.01 µM: compound 10 nM, read-out: Inhibition rate at different concentrations (%) 10 nM; for inhibition at 0.1 µM: compound 100 nM, read-out: Inhibition rate at different concentrations (%) 100 nM
Protocol: Experimental method: Recombinant human CDK9/cyclin T1 (Carna bioscience, Cat #04-110) was diluted with dilution buffer (20 mM Tris HCl (pH 7.5), 0.02% Triton X-100, 0.01% BSA, 2 mM DTT, 0.5 mM Na3VO4, 10% Glycerol) to […], the substrates CDK7/9 tide (ThermoFisher, Cat #PV5090) and ATP (sigmaaldrich, Cat #A1852) were diluted with assay buffer (25 mM Tris HCl (pH7.5), 10 mM MgCl2, 0.5 mM EGTA (pH 8), 0.5 mM Na3VO4, 5 mMb-glycerol phosphate, 0.1% Triton X-100, 2.5 mM DTT) to final concentrations of 100 μM and […] respectively, aliquot and set aside. 2 μl of diluted recombinant human CDK9/cyclin T1, 1 μl of test compound, and 2 μl of diluted substrate CDK7/9 tide containing ATP were added to the 384-well plate. […] The positive control was the well in which enzyme and substrate were co-incubated, and the negative control was the well in which dilution buffer and substrate were co-incubated. The inhibition rate was calculated according to the following formula.

T1 sequence (P50750 whole entry): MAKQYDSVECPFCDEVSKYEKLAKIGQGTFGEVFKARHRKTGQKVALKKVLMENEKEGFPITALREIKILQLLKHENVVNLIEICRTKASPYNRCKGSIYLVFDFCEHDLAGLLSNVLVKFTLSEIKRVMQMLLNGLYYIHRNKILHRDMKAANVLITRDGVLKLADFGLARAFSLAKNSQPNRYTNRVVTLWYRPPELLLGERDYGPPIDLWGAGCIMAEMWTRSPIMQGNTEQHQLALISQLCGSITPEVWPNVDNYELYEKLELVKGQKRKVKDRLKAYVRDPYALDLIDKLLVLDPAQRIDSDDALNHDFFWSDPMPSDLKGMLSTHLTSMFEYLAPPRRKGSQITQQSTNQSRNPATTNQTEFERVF
T1 sequence (O60563 whole entry partner): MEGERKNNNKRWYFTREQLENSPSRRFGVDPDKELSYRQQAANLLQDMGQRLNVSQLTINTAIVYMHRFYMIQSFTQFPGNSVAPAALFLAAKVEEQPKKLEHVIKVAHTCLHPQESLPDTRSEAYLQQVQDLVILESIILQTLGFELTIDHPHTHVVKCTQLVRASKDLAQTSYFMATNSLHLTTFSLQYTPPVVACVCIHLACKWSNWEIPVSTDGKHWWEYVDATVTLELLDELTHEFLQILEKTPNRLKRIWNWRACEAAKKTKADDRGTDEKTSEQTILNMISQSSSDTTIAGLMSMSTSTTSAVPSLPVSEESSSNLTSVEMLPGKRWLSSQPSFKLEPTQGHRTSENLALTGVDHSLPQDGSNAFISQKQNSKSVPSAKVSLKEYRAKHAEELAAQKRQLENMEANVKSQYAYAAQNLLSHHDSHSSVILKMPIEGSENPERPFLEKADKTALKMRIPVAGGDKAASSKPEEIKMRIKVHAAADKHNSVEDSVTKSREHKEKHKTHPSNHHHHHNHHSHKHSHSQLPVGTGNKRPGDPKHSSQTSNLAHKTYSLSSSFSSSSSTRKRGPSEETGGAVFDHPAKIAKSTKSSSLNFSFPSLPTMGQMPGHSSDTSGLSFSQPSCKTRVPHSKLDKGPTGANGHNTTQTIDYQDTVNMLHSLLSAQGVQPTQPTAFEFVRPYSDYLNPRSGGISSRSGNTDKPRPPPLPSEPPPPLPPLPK

Row | SMILES | inhibition at 0.01 µM | inhibition at 0.1 µM
1 | COCCNC1CCC(NC(=O)Nc2cc(-c3ccc(F)cc3Cl)ccn2)CC1 (stereo not shown) [Example 11, 1-(4-(2-chloro-4-fluorophenyl)pyridin-2-yl)-3-((1r,4r)-4-((2-methoxyethyl)amino)cyclohexyl)urea] | 24.7% | 93.4%
2 | COc1cc(F)ccc1-c1cc(NC(=O)NC2CCC(NC(C)=O)CC2)ncc1C (stereo not shown) [Example 31, N-((1r,4r)-4-(3-(5-methyl-4-(4-fluoro-2-methoxyphenyl)pyridin-2-yl)ureido)cyclohexyl)acetamide] | 20.7% | 51.3%
3 | CC1(C)Cc2c(-c3cc(NC(=O)NC4CCC(NC5COC5)CC4)ncc3Cl)cnn2C1 (stereo not shown) [Example 63] | 40.2% | 69.3%
4 | CC(C)c1c2cc(-c3ccnc(NC(=O)NC4CCC(N)CC4)c3)ccc2nn1C (stereo not shown) [Example 9, 1-((1r,4r)-4-aminocyclohexyl)-3-(4-(3-isopropyl-2-methyl-2H-indazol-5-yl)pyridin-2-yl)urea] | 23% | 55.1%
5 | COCC(C)NC1CCC(NC(=O)Nc2cc(-c3cnn4c3CC(C)(C)C4)c(Cl)cn2)CC1 (stereo not shown) [Example 55, 1-(5-chloro-4-(5,5-dimethyl-5,6-dihydro-4H-pyrrolo[1,2-b]pyrazol-3-yl)pyridin-2-yl)-3-((1r,4r)-4-((1-methoxypropan-2-yl)amino)cyclohexyl)urea] | 61.3% | 93.1%
6 | COc1cc(F)ccc1-c1ccnc(NC(=O)NC2CC(O)C2)c1 (stereo not shown) [Example 36, 1-(4-(4-fluoro-2-methoxyphenyl)pyridin-2-yl)-3((1r,3r)-3-hydroxycyclobutyl)urea] | 16.5% | 62.8%
7 | COc1cc(F)ccc1-c1cc(NC(=O)NC2CCC(NC(C)=O)CC2)ncc1C#N (stereo not shown) [Example 32, N-((1r,4r)-4-(3-(5-cyano-4-(4-fluoro-2-methoxyphenyl)pyridin-2-yl)ureido)cyclohexyl)acetamide] | 18.1% | 59.8%
8 | CC(=O)NC1CC(NC(=O)Nc2cc(-c3cnn4c3CC(C)(C)C4)c(Cl)cn2)C1 (stereo not shown) [Example 75, N-((1r,3r)-3-(3-(5-chloro-4-(5,5-dimethyl-5,6-dihydro-4H-pyrrolo[1,2-b]pyrazol-3-yl)pyridin-2-yl)ureido)cyclobutyl)acetamide] | 51% | 83%
9 | [2H]C([2H])([2H])OCCNC1CCC(NC(=O)Nc2cc(-c3cnn4c3CC(C)(C)C4)c(Cl)cn2)CC1 (stereo not shown) [Example 58, 1-(5-chloro-4-(5,5-dimethyl-5,6-dihydro-4H-pyrrolo[1,2-b]pyrazol-3-yl)pyridin-2-yl)-3-((1r,4r)-4-((2-(methoxy-d3)ethyl)amino)cyclohexyl)urea] | 65.1% | 98.2%
10 | CCNC1CCC(NC(=O)Nc2cc(-c3cnn4c3CC(C)(C)C4)c(Cl)cn2)CC1 (stereo not shown) [Example 59, 1-(5-chloro-4-(5,5-dimethyl-5,6-dihydro-4H-pyrrolo[1,2-b]pyrazol-3-yl)pyridin-2-yl)-3-((1r,4r)-4-(ethylamino)cyclohexyl)urea] | 72% | 62%
11 | CC1(C)Cc2c(-c3cc(NC(=O)NC4CCCC(N)CC4)ncc3Cl)cnn2C1 (stereo not shown) [Example 70, 1-(4-aminocycloheptyl)-3-(5-chloro-4-(5,5-dimethyl-5,6-dihydro-4H-pyrrolo[1,2-b]pyrazole-3-yl)pyridin-2-yl)urea] | 40% | 83.7%
12 | CC1(C)Cc2c(-c3cc(NC(=O)N[C@@H]4CC[C@@H](N)C4)ncc3Cl)cnn2C1 [Example 73, 1-((1S,3S)-3-aminocyclopentyl)-3-(5-chloro-4-(5,5-dimethyl-5,6-dihydro-4H-pyrrole[1,2-b]pyrazole-3-yl)pyridin-2-yl)urea] | 70% | 86%
13 | COc1cc(F)ccc1-c1cc(NC(=O)NC2CCC(NC(C)C)CC2)ncc1Cl (stereo not shown) [Example 23, 1-(5-chloro-4-(4-fluoro-2-methoxyphenyl)pyridin-2-yl)-3-((1r,4r)-4-(isopropylamino)cyclohexyl)urea] | 37.2% | 87.4%
14 | COc1cc(F)ccc1-c1ccnc(NC(=O)NC2CCC(NC(C)=O)CC2)n1 (stereo not shown) [Example 41, N-((1r,4r)-4-(3-(4-(4-fluoro-2-methoxyphenyl)pyrimidin-2-yl)ureido)cyclohexyl)acetamide] | 38.1% | 70.2%
15 | CC(C)NC1CCC(NC(=O)Nc2cc(-c3cnn4c3CC(C)(C)C4)c(Cl)cn2)CC1 (stereo not shown) [Example 60, 1-(5-chloro-4-(5,5-dimethyl-5,6-dihydro-4H-pyrrolo[1,2-b]pyrazol-3-yl)pyridin-2-yl)-3-((1r,4r)-4-(isopropylamino)cyclohexyl)urea] | 49% | 87.3%
16 | COc1cc(F)ccc1-c1cc(NC(=O)NC2CCC(N)CC2)ncc1Cl (stereo not shown) [Example 18, 1-((1r,4r)-4-aminocyclohexyl)-3-(5-chloro-4-(4-fluoro-2-methoxyphenyl)pyridin-2-yl)urea] | 84% | 86%
17 | COc1cc(F)c(F)cc1-c1ccnc(NC(=O)NC2CCC(N)CC2)c1 (stereo not shown) [Example 5, 1-((1r,4r)-4-aminocyclohexyl)-3-(4-(4,5-difluoro-2-methoxyphenyl)pyridin-2-yl)urea] | 46.2% | 88.2%
18 | CN(C)C1CCC(NC(=O)Nc2cc(-c3cnn4c3CC(C)(C)C4)c(Cl)cn2)CC1 (stereo not shown) [Example 89, 1-(5-chloro-4-(5,5-dimethyl-5,6-dihydro-4H-pyrrolo[1,2-b]pyrazol-3-yl)pyridin-2-yl)-3-((1r,4r)-4-(dimethylamino)cyclohexyl)urea] | 63.7% | 92.7%
19 | CC1(C)Cc2c(-c3cc(NC(=O)NC4CCC(NCCOC(F)(F)F)CC4)ncc3Cl)cnn2C1 (stereo not shown) [Example 57] | 55% | 86.5%
20 | COc1cc(F)ccc1-c1cc(NC(=O)NC2CCC(NC(=O)CN(C)C)CC2)ncc1Cl (stereo not shown) [Example 28, N-((1r,4r)-4-(3-(5-chloro-4-(4-fluoro-2-methoxyphenyl)pyridin-2-yl)ureido)cyclohexyl)-2-(dimethylamino)acetamide] | 29.5% | 84.3%
21 | COc1cc(F)ccc1-c1ccnc(NC(=O)NC2CCC(NC(=O)OC(C)(C)C)CC2)c1 (stereo not shown) [Example 1, tert-butyl((1r,4r)-4-(3-(4-(4-fluoro-2-methoxyphenyl)pyridin-2-yl)ureido)cyclohexyl) carbamate] | 48.5% | 97.3%
22 | CC(=O)NC1CCC(NC(=O)Nc2cc(-c3cnn4c3CC(C)(C)C4)c(F)cn2)CC1 (stereo not shown) [Example 51, N-((1r,4r)-4-(3-(4-(5,5-dimethyl-5,6-dihydro-4H-pyrrolo[1,2-b]pyrazol-3-yl)-5-fluoropyridin-2-yl)ureido)cyclohexyl)acetamide] | 60.2% | 92.8%
23 | COCCN(C)C1CCC(NC(=O)Nc2cc(-c3cnn4c3CC(C)(C)C4)c(Cl)cn2)CC1 (stereo not shown) [Example 90, 1-(5-chloro-4-(5,5-dimethyl-5,6-dihydro-4H-pyrrolo[1,2-b]pyrazol-3-yl)pyridin-2-yl)-3-((1r,4r)-4-((2-methoxyethyl)(methyl)amino)cyclohexyl)urea] | 61% | 98%
24 | CC(=O)NC1CCC(NC(=O)Nc2cc(-c3cnn4c3COCC4)c(Cl)cn2)CC1 (stereo not shown) [Example 82, N-((1r,4r)-4-(3-(5-chloro-4-(6,7-dihydro-4H-pyrazolo[5,1-c][1,4]oxazine-3-yl)pyridin-2-yl)ureido)cyclohexyl)acetamide] | 38% | 79.2%
25 | COCCNC1CCC(NC(=O)Nc2cc(-c3ccc(F)cc3OC)c(C)cn2)CC1 (stereo not shown) [Example 29, 1-(4-(4-fluoro-2-methoxyphenyl)-5-methylpyridin-2-yl)-3-((1r,4r)-4-((2-methoxyethyl)amino)cyclohexyl) urea] | 19.4% | 57%
26 | CN(C)CCNC1CCC(NC(=O)Nc2cc(-c3cnn4c3CC(C)(C)C4)c(Cl)cn2)CC1 (stereo not shown) [Example 56, 1-(5-chloro-4-(5,5-dimethyl-5,6-dihydro-4H-pyrrolo[1,2-b]pyrazol-3-yl)pyridin-2-yl)-3-((1r,4r)-4-((2-(dimethylamino)ethyl)amino)cyclohexyl)urea] | 44.9% | 95.2%
27 | CC1(C)Cc2c(-c3cc(NC(=O)NC4CCC(NC(=O)C5CC5)CC4)ncc3Cl)cnn2C1 (stereo not shown) [Example 49] | 58% | 89.2%
28 | CC1(C)Cc2c(-c3cc(NC(=O)NC4CCC(NC(=O)OC(C)(C)C)CC4)ncc3Cl)cnn2C1 (stereo not shown) [Example 64, tert-butyl (1s,4s)-4-(3-(5-chloro-4-(5,5-dimethyl-5,6-dihydro-4H-pyrrolo [1,2-b]pyrazol-3-yl)pyridin-2-yl)ureido)cyclohexylcarbamate] | 28% | 56%
29 | COc1cc(-c2ccnc(NC(=O)NC3CCC(N)CC3)c2)c(F)cc1F (stereo not shown) [Example 7, 1-((1r,4r)-4-aminocyclohexyl)-3-(4-(2,4-difluoro-5-methoxyphenyl)pyridine-2-yl)urea] | 34.3% | 81.1%
